Assay results published in article PMC6858350, “A common mechanism allows selective targeting of GluN2B subunit-containing N-methyl-D-aspartate receptors” (Communications Biology, 2019).
Like-named read-outs stand apart in the source and are kept apart here. Marks after values point to notes of the source that are not given here.

Key:
[1] = target: GluN1-1a/GluN2B NMDAR (wildtype) (Rattus norvegicus, UniProt P35439+Q00960); assay type: cell-based; details: for A2 (maximum inhibition), set as identical with rac-1: due to non-saturating inhibition A2 was fixed, not fitted
GluN1-1a WT/GluN2B F176Y [2] = target: T1, GluN1-1a WT/GluN2B F176Y (Rattus norvegicus, UniProt P35439+Q00960, F176Y)
GluN1-1a F113S/GluN2B WT [3] = target: T2, GluN1-1a F113S/GluN2B WT (Rattus norvegicus, UniProt P35439+Q00960, F113S)
GluN1-1a/GluN2A NMDAR = GluN1-1a/GluN2A NMDAR (Rattus norvegicus, UniProt P35439+Q00959); test: cell-based; details: read-out: ion current inhibition % ± SEM, GluN2A
GluN1-1a/GluN2C NMDAR [4] = target: T3, GluN1-1a/GluN2C NMDAR (Rattus norvegicus, UniProt P35439+Q00961); details: from inhibition at 10 µM (GluN2C, GluN2D) versus IC50 at GluN2B
GluN1-1a L135N/GluN2B WT [5] = target: T4, GluN1-1a L135N/GluN2B WT (Rattus norvegicus, UniProt P35439+Q00960, L135N)
GluN1-1a WT/GluN2B F114A [6] = target: T5, GluN1-1a WT/GluN2B F114A (Rattus norvegicus, UniProt P35439+Q00960, F114A); test: cell-based
GluN1-1a/GluN2D NMDAR = GluN1-1a/GluN2D NMDAR (Rattus norvegicus, UniProt P35439+Q62645); test: cell-based; details: read-out: ion current inhibition % ± SEM, GluN2D
GluN1-1a Y109S/GluN2B WT [7] = target: T6, GluN1-1a Y109S/GluN2B WT (Rattus norvegicus, UniProt P35439+Q00960, Y109S)
GluN1-1a WT/GluN2B F176Y [8] = target: T1, GluN1-1a WT/GluN2B F176Y; test: cell-based
GluN1-1a WT/GluN2B I111A [9] = target: T7, GluN1-1a WT/GluN2B I111A (Rattus norvegicus, UniProt P35439+Q00960, I111A); test: cell-based
GluN1-1a S132A/GluN2B WT [10] = target: T8, GluN1-1a S132A/GluN2B WT (Rattus norvegicus, UniProt P35439+Q00960, S132A)
GluN1-1a WT/GluN2B F176A [11] = target: T9, GluN1-1a WT/GluN2B F176A (Rattus norvegicus, UniProt P35439+Q00960, F176A)
GluN1-1a WT/GluN2B E236A [12] = target: T10, GluN1-1a WT/GluN2B E236A (Rattus norvegicus, UniProt P35439+Q00960, E236A); test: cell-based
GluN1-1a WT/GluN2B Q110A [13] = target: T11, GluN1-1a WT/GluN2B Q110A (Rattus norvegicus, UniProt P35439+Q00960, Q110A); test: cell-based
GluN1-1a WT/GluN2B F176A [14] = target: T9, GluN1-1a WT/GluN2B F176A; test: cell-based
GluN1-1a WT/GluN2B E236A [15] = target: T10, GluN1-1a WT/GluN2B E236A
GluN1-1a S132A/GluN2B WT [16] = target: T8, GluN1-1a S132A/GluN2B WT; test: cell-based
GluN1-1a F113S/GluN2B WT [17] = target: T2, GluN1-1a F113S/GluN2B WT; test: cell-based
GluN1-1a WT/GluN2B F114A [18] = target: T5, GluN1-1a WT/GluN2B F114A
GluN1-1a L135N/GluN2B WT [19] = target: T4, GluN1-1a L135N/GluN2B WT; test: cell-based
GluN1-1a/GluN2C NMDAR [20] = target: T3, GluN1-1a/GluN2C NMDAR; test: cell-based; details: read-out: ion current inhibition % ± SEM, GluN2C
GluN1-1a Y109S/GluN2B WT [21] = target: T6, GluN1-1a Y109S/GluN2B WT; test: cell-based
GluN1-1a WT/GluN2B Q110A [22] = target: T11, GluN1-1a WT/GluN2B Q110A
GluN1-1a WT/GluN2B I111A [23] = target: T7, GluN1-1a WT/GluN2B I111A
[24] = TEVC, holding potential −70 mV, 10 µM glycine and 10 µM (S)-glutamate, wildtype, read-out: IC50 ± SE

T4 sequence (Q00960 27-1482, other chains not shown): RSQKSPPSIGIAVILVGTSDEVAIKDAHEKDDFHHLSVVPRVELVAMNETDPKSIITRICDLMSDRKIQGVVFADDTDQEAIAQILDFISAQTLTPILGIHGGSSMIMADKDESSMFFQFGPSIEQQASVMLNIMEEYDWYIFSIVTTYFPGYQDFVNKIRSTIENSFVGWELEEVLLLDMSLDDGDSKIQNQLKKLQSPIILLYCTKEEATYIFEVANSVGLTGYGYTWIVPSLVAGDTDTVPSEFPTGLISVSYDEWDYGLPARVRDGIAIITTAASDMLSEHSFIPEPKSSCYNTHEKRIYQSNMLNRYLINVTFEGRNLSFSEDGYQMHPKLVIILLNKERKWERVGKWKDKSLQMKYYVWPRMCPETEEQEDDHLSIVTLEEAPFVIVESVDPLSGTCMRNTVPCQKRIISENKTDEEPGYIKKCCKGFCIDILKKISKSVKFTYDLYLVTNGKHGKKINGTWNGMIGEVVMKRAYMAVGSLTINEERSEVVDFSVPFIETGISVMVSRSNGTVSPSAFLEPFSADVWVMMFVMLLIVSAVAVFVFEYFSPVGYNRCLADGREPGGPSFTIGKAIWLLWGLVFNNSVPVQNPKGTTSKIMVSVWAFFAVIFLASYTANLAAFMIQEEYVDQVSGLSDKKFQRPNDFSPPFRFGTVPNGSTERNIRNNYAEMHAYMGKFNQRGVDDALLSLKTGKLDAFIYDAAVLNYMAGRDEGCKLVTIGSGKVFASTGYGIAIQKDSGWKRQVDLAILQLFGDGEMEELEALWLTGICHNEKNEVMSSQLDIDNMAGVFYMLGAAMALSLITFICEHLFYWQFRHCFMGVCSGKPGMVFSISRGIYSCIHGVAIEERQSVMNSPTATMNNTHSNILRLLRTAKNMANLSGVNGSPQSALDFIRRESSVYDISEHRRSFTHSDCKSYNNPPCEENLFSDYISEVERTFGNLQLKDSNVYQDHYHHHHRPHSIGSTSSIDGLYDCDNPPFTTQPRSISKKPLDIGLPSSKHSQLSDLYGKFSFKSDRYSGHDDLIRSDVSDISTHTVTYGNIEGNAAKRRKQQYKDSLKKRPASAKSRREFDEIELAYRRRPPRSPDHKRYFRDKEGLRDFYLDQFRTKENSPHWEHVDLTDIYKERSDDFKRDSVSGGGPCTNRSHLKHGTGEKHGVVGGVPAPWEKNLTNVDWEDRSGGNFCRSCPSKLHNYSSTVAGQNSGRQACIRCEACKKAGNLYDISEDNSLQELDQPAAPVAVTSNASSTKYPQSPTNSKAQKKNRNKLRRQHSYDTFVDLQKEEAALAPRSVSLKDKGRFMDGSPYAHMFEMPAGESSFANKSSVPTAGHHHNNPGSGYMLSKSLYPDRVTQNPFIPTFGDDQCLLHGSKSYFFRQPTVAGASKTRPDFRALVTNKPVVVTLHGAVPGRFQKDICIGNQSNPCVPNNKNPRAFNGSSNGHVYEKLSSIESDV
T6 sequence (Q00960 27-1482, other chains not shown): as above
Sequence of GluN1-1a/GluN2B NMDAR (wildtype) (Q00960 27-1482, other chains not shown): as above

In the case of Oc1ccc2c(c1)CCN([C@H]1CC[C@@H](c3ccccc3)CC1)CC2O (some centres unmarked) [compound 7], the IC50 [1, 24] is reported as 7210 ± 1770 nM, the “p (slope of the dose-response curve)” value ([1]; TEVC, −70 mV, wildtype) is reported as 0.62 and the “A2 (maximum inhibition), set as identical with rac-1” value [1] is reported as 93^d %.

With Oc1ccc2c(c1)CCN([C@H]1CC[C@H](c3ccccc3)CC1)CC2O (some centres unmarked) [compound 6] the IC50 [1, 24] was 2630 ± 296 nM, the “p (slope of the dose-response curve)” value ([1]; TEVC, −70 mV, wildtype) was 0.70 and the “A2 (maximum inhibition), set as identical with rac-1” value [1] was 93^d %.

With C[C@@H]1[C@H](O)c2ccc(O)cc2CCN1CCCCc1ccccc1 [compound 2] the “p (slope)” value (GluN1-1a WT/GluN2B F176Y [2]; GluN2B F176Y) was 1.00, the “A2, fixed-to-wildtype (*)” value (GluN1-1a WT/GluN2B F176Y [2]; GluN2B F176Y, maximum inhibition fixed to wildtype value) was 97% and the IC50 shift factor (GluN1-1a WT/GluN2B F176Y [2]; mutant IC50 / wildtype IC50, GluN2B F176Y) was 0.9. The “p (slope)” value (GluN1-1a F113S/GluN2B WT [3]; GluN1-1a F113S) was 0.57, the “A2 ± SE” value (GluN1-1a F113S/GluN2B WT [3]; GluN1-1a F113S, flexible A2) was 100 ± 3% and the IC50 shift factor (GluN1-1a F113S/GluN2B WT [3]; mutant IC50 / wildtype IC50, GluN1-1a F113S) was 0.8. The inhibition at 10 µM (GluN1-1a/GluN2A NMDAR) was 15 ± 5%, the “lower activity at GluN2C and GluN2D than at GluN2B subunit-containing NMDARs” value (GluN1-1a/GluN2C NMDAR [4]) was “at least 100 fold” and the “p (slope)” value (GluN1-1a L135N/GluN2B WT [5]; GluN1-1a L135N) was 0.72. For the same compound, the “A2 ± SE” value (GluN1-1a L135N/GluN2B WT [5]; GluN1-1a L135N, flexible A2) was 100 ± 5%, the IC50 shift factor (GluN1-1a L135N/GluN2B WT [5]; mutant IC50 / wildtype IC50, GluN1-1a L135N) was 9.2 and the IC50 (GluN1-1a WT/GluN2B F114A [6]) was 667 ± 90 nM. The inhibition at 10 µM (GluN1-1a/GluN2D NMDAR) was 55 ± 2%, the “p (slope)” value (GluN1-1a Y109S/GluN2B WT [7]; GluN1-1a Y109S) was 0.86 and the “A2 ± SE” value (GluN1-1a Y109S/GluN2B WT [7]; GluN1-1a Y109S, flexible A2) was 96 ± 2%. The IC50 shift factor (GluN1-1a Y109S/GluN2B WT [7]; mutant IC50 / wildtype IC50, GluN1-1a Y109S) was 1.5, the IC50 (GluN1-1a WT/GluN2B F176Y [8]) was 84 ± 9 nM and the IC50 (GluN1-1a WT/GluN2B I111A [9]) was 380 ± 82 nM. The “p (slope)” value (GluN1-1a S132A/GluN2B WT [10]; GluN1-1a S132A) was 0.78, the “A2 ± SE” value (GluN1-1a S132A/GluN2B WT [10]; GluN1-1a S132A, flexible A2) was 100 ± 3% and the IC50 shift factor (GluN1-1a S132A/GluN2B WT [10]; mutant IC50 / wildtype IC50, GluN1-1a S132A) was 4.3. For the same compound, the “p (slope)” value (GluN1-1a WT/GluN2B F176A [11]; GluN2B F176A) was 0.94, the “A2, fixed-to-wildtype (*)” value (GluN1-1a WT/GluN2B F176A [11]; GluN2B F176A, maximum inhibition fixed to wildtype value) was 97% and the IC50 shift factor (GluN1-1a WT/GluN2B F176A [11]; mutant IC50 / wildtype IC50, GluN2B F176A) was 19.9. For the same compound, the IC50 (GluN1-1a WT/GluN2B E236A [12]) was 108 ± 16 nM, the IC50 [1] was 91 ± 7 nM and the “p (slope of the dose-response curve)” value ([1]; TEVC, −70 mV, wildtype) was 1.08. The “A2 ± SE (maximum inhibition from dose-response curve)” value ([1]; TEVC, −70 mV, wildtype, flexible A2) was 97 ± 2%, the inhibition at 10 µM ([1]; read-out: ion current inhibition % ± SEM, GluN2B) was 95 ± 1% and the IC50 (GluN1-1a WT/GluN2B Q110A [13]) was 130 ± 6 nM. For the same compound, the IC50 (GluN1-1a WT/GluN2B F176A [14]) was 1810 ± 127 nM, the “p (slope)” value (GluN1-1a WT/GluN2B E236A [15]; GluN2B E236A) was 1.09 and the “A2 ± SE” value (GluN1-1a WT/GluN2B E236A [15]; GluN2B E236A, flexible A2) was 95 ± 3%. The IC50 shift factor (GluN1-1a WT/GluN2B E236A [15]; mutant IC50 / wildtype IC50, GluN2B E236A) was 1.2, the IC50 (GluN1-1a S132A/GluN2B WT [16]) was 387 ± 57 nM and the IC50 (GluN1-1a F113S/GluN2B WT [17]) was 76 ± 17 nM. The “p (slope)” value (GluN1-1a WT/GluN2B F114A [18]; GluN2B F114A) was 1.03, the “A2, fixed-to-wildtype (*)” value (GluN1-1a WT/GluN2B F114A [18]; GluN2B F114A, maximum inhibition fixed to wildtype value) was 97% and the IC50 shift factor (GluN1-1a WT/GluN2B F114A [18]; mutant IC50 / wildtype IC50, GluN2B F114A) was 7.3. For the same compound, the IC50 (GluN1-1a L135N/GluN2B WT [19]) was 835 ± 184 nM, the inhibition at 10 µM (GluN1-1a/GluN2C NMDAR [20]) was 56 ± 2% and the IC50 (GluN1-1a Y109S/GluN2B WT [21]) was 140 ± 19 nM. For the same compound, the “p (slope)” value (GluN1-1a WT/GluN2B Q110A [22]; GluN2B Q110A) was 1.79, the “A2 ± SE” value (GluN1-1a WT/GluN2B Q110A [22]; GluN2B Q110A, flexible A2) was 95 ± 1% and the IC50 shift factor (GluN1-1a WT/GluN2B Q110A [22]; mutant IC50 / wildtype IC50, GluN2B Q110A) was 1.4. The “p (slope)” value (GluN1-1a WT/GluN2B I111A [23]; GluN2B I111A) was 0.86, the “A2 ± SE” value (GluN1-1a WT/GluN2B I111A [23]; GluN2B I111A, flexible A2) was 96 ± 4% and the IC50 shift factor (GluN1-1a WT/GluN2B I111A [23]; mutant IC50 / wildtype IC50, GluN2B I111A) was 4.2.

c1ccc(CCCCN2CCc3ccccc3CC2)cc1 [compound 5] was tested, and the “Inhibition (% ± SEM) of ion flux” value ([1]; compound concentration 30 µM, wildtype) was “almost inactive” and the inhibition at 30 µM ([1]; compound concentration 30 µM, wildtype, read-out: Inhibition (% ± SEM) of ion flux) was 9 ± 2%.
